Data: ChEMBL document CHEMBL4138142, “Antibacterial 3,6-Disubstituted 4-Hydroxy-5,6-dihydro-2H-pyran-2-ones from Serratia plymuthica MF371-2” (J Nat Prod, 2017)
Converted amounts (≈) assume the structure as drawn.

Columns and labels:
[1] = Cytotoxicity against human HepG2 cells after 48 hrs by XTT assay; format: cell-based
Staphylococcus aureus [2] = assay: Antibacterial activity against methicillin-resistant Staphylococcus aureus LMG 15975 after 16 to 24 hrs by broth microdilution method; format: functional
Acinetobacter baumannii = assay: Antibacterial activity against Acinetobacter baumannii LMG1041 after 16 to 24 hrs by broth microdilution method; format: functional
Enterococcus faecalis [3] = assay: Antibacterial activity against vancomycin-resistant Enterococcus faecalis 12 by dilution susceptibility test; format: functional
Enterococcus faecium = assay: Antibacterial activity against vancomycin-resistant Enterococcus faecium 7 by dilution susceptibility test; format: functional
Staphylococcus aureus [4] = assay: Antibacterial activity against methicillin-resistant Staphylococcus aureus MO17 after 16 to 24 hrs by broth microdilution method; format: functional
Staphylococcus aureus [5] = assay: Antibacterial activity against methicillin-resistant Staphylococcus aureus 4384 after 16 to 24 hrs by broth microdilution method; format: functional
[6] = Cytotoxicity against human HuH7 cells after 48 hrs by XTT assay; format: cell-based, Huh-7
Streptococcus pneumoniae [7] = assay: Antibacterial activity against quinolone-resistant Streptococcus pneumoniae TE 122-024 by dilution susceptibility test; format: functional
Streptococcus pneumoniae [8] = assay: Antibacterial activity against Streptococcus pneumoniae ATCC 49619 by dilution susceptibility test; format: functional
Streptococcus pyogenes [9] = assay: Antibacterial activity against macrolide-resistant Streptococcus pyogenes 2 Finland by dilution susceptibility test; format: functional
Klebsiella pneumoniae = assay: Antibacterial activity against Klebsiella pneumoniae LMG20218 by dilution susceptibility test; format: functional
Staphylococcus aureus [10] = assay: Antibacterial activity against macrolide-resistant Staphylococcus aureus 56 Japan after 16 to 24 hrs by broth microdilution method; format: functional
Escherichia coli = assay: Antibacterial activity against Escherichia coli LMG15862 by dilution susceptibility test; format: functional
Staphylococcus aureus [11] = assay: Antibacterial activity against quinolone-resistant Staphylococcus aureus FR 131 after 16 to 24 hrs by broth microdilution method; format: functional
Staphylococcus aureus [12] = assay: Antibacterial activity against mupirocin-resistant Staphylococcus aureus V86 after 16 to 24 hrs by broth microdilution method; format: functional
Staphylococcus aureus [13] = assay: Antibacterial activity against mupirocin-resistant Staphylococcus aureus V308 after 16 to 24 hrs by broth microdilution method; format: functional
Streptococcus pneumoniae [14] = assay: Antibacterial activity against quinolone-sensitive Streptococcus pneumoniae 19A-TN by dilution susceptibility test; format: functional
Streptococcus pneumoniae [15] = assay: Antibacterial activity against macrolide-sensitive Streptococcus pneumoniae SP030 by dilution susceptibility test; format: functional
Streptococcus pneumoniae [16] = assay: Antibacterial activity against macrolide-resistant Streptococcus pneumoniae 158bg by dilution susceptibility test; format: functional
Staphylococcus aureus [17] = assay: Antibacterial activity against macrolide-resistant Staphylococcus aureus PK2 after 16 to 24 hrs by broth microdilution method; format: functional
Pseudomonas aeruginosa = assay: Antibacterial activity against Pseudomonas aeruginosa LMG6395 by dilution susceptibility test; format: functional
Streptococcus pneumoniae [18] = assay: Antibacterial activity against macrolide-resistant Streptococcus pneumoniae BAA1407 by dilution susceptibility test; format: functional
[19] = test system: Staphylococcus epidermidis; assay: Antibacterial activity against methicillin-susceptible Staphylococcus epidermidis RO7 by dilution susceptibility test; format: functional
Streptococcus pyogenes [20] = assay: Antibacterial activity against macrolide-resistant Streptococcus pyogenes 21 Finland by dilution susceptibility test; format: functional
[21] = test system: Staphylococcus epidermidis; assay: Antibacterial activity against methicillin-resistant Staphylococcus epidermidis TA12 by dilution susceptibility test; format: functional
Staphylococcus aureus [22] = assay: Antibacterial activity against mupirocin-resistant Staphylococcus aureus V55 after 16 to 24 hrs by broth microdilution method; format: functional
[23] = test system: Mycolicibacterium frederiksbergense; assay: Antibacterial activity against Mycobacterium frederiksbergense by dilution susceptibility test; format: functional
[24] = Cytotoxicity against human MT4 cells after 48 hrs by XTT assay; format: cell-based
Staphylococcus aureus [25] = assay: Antibacterial activity against macrolide-resistant Staphylococcus aureus 6 Holland after 16 to 24 hrs by broth microdilution method; format: functional
Staphylococcus aureus [26] = assay: Antibacterial activity against mupirocin-resistant Staphylococcus aureus V321 after 16 to 24 hrs by broth microdilution method; format: functional
Staphylococcus aureus [27] = assay: Antibacterial activity against Staphylococcus aureus LMG 10147 after 16 to 24 hrs by broth microdilution method; format: functional
Streptococcus pyogenes [28] = assay: Antibacterial activity against macrolide-sensitive Streptococcus pyogenes 29A-TF by dilution susceptibility test; format: functional
Staphylococcus aureus [29] = assay: Antibacterial activity against macrolide-resistant Staphylococcus aureus 853E after 16 to 24 hrs by broth microdilution method; format: functional
Staphylococcus aureus [30] = assay: Antibacterial activity against Staphylococcus aureus CCUG 1800 after 16 to 24 hrs by broth microdilution method; format: functional
Staphylococcus aureus [31] = assay: Antibacterial activity against Staphylococcus aureus ATCC 29213 after 16 to 24 hrs by broth microdilution method; format: functional
Streptococcus pneumoniae [32] = assay: Antibacterial activity against macrolide-resistant Streptococcus pneumoniae 956 by dilution susceptibility test; format: functional
Streptococcus pneumoniae [33] = assay: Antibacterial activity against tetracycline-resistant Streptococcus pneumoniae TE 122-026 by dilution susceptibility test; format: functional
Staphylococcus aureus [34] = assay: Antibacterial activity against tetracycline-resistant Staphylococcus aureus 4216 after 16 to 24 hrs by broth microdilution method; format: functional
Staphylococcus aureus [35] = assay: Antibacterial activity against methicillin-resistant Staphylococcus aureus PICI after 16 to 24 hrs by broth microdilution method; format: functional
Enterococcus faecalis [36] = assay: Antibacterial activity against vancomycin-sensitive Enterococcus faecalis 24 by dilution susceptibility test; format: functional
Bacillus cereus = assay: Antibacterial activity against Bacillus cereus CCUG 7414 by dilution susceptibility test; format: functional

CCCCCCCCC[C@@H]1CC(O)=C(C(C)=O)C(=O)O1
CC50 at 48 h [1]: 71 µg/mL (≈ 251 µM) | MIC (Staphylococcus aureus [2]): 1.5 to 2.5 µg/mL (≈ 5.31 to 8.85 µM) | MIC (Acinetobacter baumannii): > 64 µg/mL

CN[C@H](CC(C)C)C(=O)N[C@H]1C(=O)N[C@@H](CC(N)=O)C(=O)N[C@H]2C(=O)N[C@H]3C(=O)N[C@H](C(=O)N[C@H](C(=O)O)c4cc(O)cc(O)c4-c4cc3ccc4O)[C@H](O)c3ccc(c(Cl)c3)Oc3cc2cc(c3O[C@@H]2O[C@H](CO)[C@@H](O)[C@H](O)[C@H]2O[C@H]2C[C@](C)(N)[C@H](O)[C@H](C)O2)Oc2ccc(cc2Cl)[C@H]1O [VANCOMYCIN]
MIC (Enterococcus faecalis [3]): > 256 µg/mL | MIC (Enterococcus faecium): > 256 µg/mL

CCCCCCCCC[C@@H]1CC(O)=C(C(=O)CC)C(=O)O1
CC50 at 48 h [1]: 50 µg/mL (≈ 169 µM) | MIC (Staphylococcus aureus [2]): 0.7 µg/mL (≈ 2.36 µM) | MIC (Acinetobacter baumannii): 32 to 48 µg/mL (≈ 108 to 162 µM)

CCCCCCCC[C@@H]1CC(O)=C(C(=O)CCC)C(=O)O1
CC50 at 48 h [1]: 30 µg/mL (≈ 101 µM) | MIC (Staphylococcus aureus [2]): 0.8 to 1.5 µg/mL (≈ 2.7 to 5.06 µM) | MIC (Acinetobacter baumannii): 24 to 32 µg/mL (≈ 81 to 108 µM)

CCCC(=O)C1=C(O)C[C@@H](CC)OC1=O
CC50 at 48 h [1]: > 100 µg/mL | MIC (Staphylococcus aureus [2]): > 50 µg/mL | MIC (Acinetobacter baumannii): > 64 µg/mL

CCCCCCCCCC[C@@H]1CC(O)=C(C(=O)CCC)C(=O)O1
CC50 at 48 h [1]: 25 µg/mL (≈ 77.1 µM) | MIC (Staphylococcus aureus [2]): 0.6 to 0.8 µg/mL (≈ 1.85 to 2.47 µM) | MIC (Acinetobacter baumannii): 8 to 16 µg/mL (≈ 24.7 to 49.3 µM)

CCCCCCCCC[C@@H]1CC(O)=C(C(=O)CCCCC)C(=O)O1
CC50 at 48 h [1]: 15 µg/mL (≈ 44.3 µM) | MIC (Staphylococcus aureus [2]): 0.6 to 0.8 µg/mL (≈ 1.77 to 2.36 µM) | MIC (Acinetobacter baumannii): 4 to 8 µg/mL (≈ 11.8 to 23.6 µM)

CCCCCCCCC[C@@H]1CC(O)=C(C(=O)CCC)C(=O)O1
MIC (Staphylococcus aureus [4]): 2 µg/mL (≈ 6.44 µM) | MIC (Staphylococcus aureus [5]): 2 µg/mL (≈ 6.44 µM) | CC50 at 48 h [6]: 40 µg/mL (≈ 129 µM) | MIC (Streptococcus pneumoniae [7]): 8 µg/mL (≈ 25.8 µM) | MIC (Streptococcus pneumoniae [8]): 4 µg/mL (≈ 12.9 µM) | MIC (Streptococcus pyogenes [9]): 8 µg/mL (≈ 25.8 µM) | MIC (Klebsiella pneumoniae): > 64 µg/mL | CC50 at 48 h [1]: 33 µg/mL (≈ 106 µM) | MIC (Staphylococcus aureus [10]): 4 µg/mL (≈ 12.9 µM) | MIC (Escherichia coli): > 64 µg/mL | MIC (Staphylococcus aureus [11]): 2 µg/mL (≈ 6.44 µM) | MIC (Staphylococcus aureus [2]): 0.8 µg/mL (≈ 2.58 µM) | MIC (Staphylococcus aureus [12]): 0.1 to 0.25 µg/mL (≈ 0.322 to 0.805 µM) | MIC (Staphylococcus aureus [13]): 0.1 to 0.25 µg/mL (≈ 0.322 to 0.805 µM) | MIC (Enterococcus faecalis [3]): 2 µg/mL (≈ 6.44 µM) | MIC (Acinetobacter baumannii): 12 to 24 µg/mL (≈ 38.7 to 77.3 µM) | MIC (Streptococcus pneumoniae [14]): 8 µg/mL (≈ 25.8 µM) | MIC (Streptococcus pneumoniae [15]): 8 µg/mL (≈ 25.8 µM) | MIC (Streptococcus pneumoniae [16]): 4 µg/mL (≈ 12.9 µM) | MIC (Staphylococcus aureus [17]): 2 µg/mL (≈ 6.44 µM) | MIC (Pseudomonas aeruginosa): > 64 µg/mL | MIC (Streptococcus pneumoniae [18]): 8 µg/mL (≈ 25.8 µM) | MIC [19]: 1 µg/mL (≈ 3.22 µM) | MIC (Streptococcus pyogenes [20]): 8 µg/mL (≈ 25.8 µM) | MIC [21]: 2 µg/mL (≈ 6.44 µM) | MIC (Enterococcus faecium): 2 µg/mL (≈ 6.44 µM) | MIC (Staphylococcus aureus [22]): ≤ 0.1 µg/mL | MIC [23]: ≤ 0.5 µg/mL | CC50 at 48 h [24]: 4.7 µg/mL (≈ 15.1 µM) | MIC (Staphylococcus aureus [25]): 1 µg/mL (≈ 3.22 µM) | MIC (Staphylococcus aureus [26]): 0.1 to 0.25 µg/mL (≈ 0.322 to 0.805 µM) | MIC (Staphylococcus aureus [27]): 0.4 µg/mL (≈ 1.29 µM) | MIC (Streptococcus pyogenes [28]): 8 µg/mL (≈ 25.8 µM) | MIC (Staphylococcus aureus [29]): 2 µg/mL (≈ 6.44 µM) | MIC (Staphylococcus aureus [30]): 0.25 µg/mL (≈ 0.805 µM) | MIC (Staphylococcus aureus [31]): 4 µg/mL (≈ 12.9 µM) | MIC (Streptococcus pneumoniae [32]): 4 µg/mL (≈ 12.9 µM) | MIC (Streptococcus pneumoniae [33]): 4 µg/mL (≈ 12.9 µM) | MIC (Staphylococcus aureus [34]): 2 µg/mL (≈ 6.44 µM) | MIC (Staphylococcus aureus [35]): 4 µg/mL (≈ 12.9 µM) | MIC (Enterococcus faecalis [36]): 2 µg/mL (≈ 6.44 µM) | MIC (Bacillus cereus): ≤ 1 µg/mL

CCCCCCC[C@@H]1CC(O)=C(C(=O)CCC)C(=O)O1
MIC (Staphylococcus aureus [2]): 1 to 2 µg/mL (≈ 3.54 to 7.08 µM) | MIC (Acinetobacter baumannii): > 64 µg/mL

NC[C@H]1O[C@H](O[C@H]2[C@H](O)[C@@H](O[C@H]3O[C@H](CO)[C@@H](O)[C@H](N)[C@H]3O)[C@H](N)C[C@@H]2N)[C@H](O)[C@@H](O)[C@@H]1O [KANAMYCIN]
MIC (Enterococcus faecalis [3]): > 256 µg/mL | MIC (Enterococcus faecium): > 256 µg/mL

NC[C@H]1O[C@H](O[C@H]2[C@H](O)[C@@H](O[C@H]3O[C@H](CO)[C@@H](O)[C@H](N)[C@H]3O)[C@H](N)C[C@@H]2N)[C@H](N)C[C@@H]1O [TOBRAMYCIN]
MIC (Enterococcus faecalis [3]): > 256 µg/mL | MIC (Enterococcus faecium): > 256 µg/mL

CCCCCCCCCCC[C@@H]1CC(O)=C(C(=O)CCC)C(=O)O1
CC50 at 48 h [1]: 19 µg/mL (≈ 56.1 µM) | MIC (Staphylococcus aureus [2]): 0.1 to 0.2 µg/mL (≈ 0.295 to 0.591 µM) | MIC (Acinetobacter baumannii): < 4 µg/mL

GENTAMICIN
MIC (Enterococcus faecalis [3]): > 256 µg/mL | MIC (Enterococcus faecium): > 256 µg/mL

CCCCCCCCC[C@@H]1CC(O)=C(C(=O)CCCC)C(=O)O1
CC50 at 48 h [1]: 36 µg/mL (≈ 111 µM) | MIC (Staphylococcus aureus [2]): < 0.6 µg/mL | MIC (Acinetobacter baumannii): 8 to 16 µg/mL (≈ 24.7 to 49.3 µM)
